Patent US20110281922A1, “AMIDE THIAZOLE DERIVATIVE, PREPARATION METHOD AND USES THEREOF” (TIANJIN INSTITUTE OF PHARMACEUTICAL RESEARCH, priority 2008, published 2011)
Counter-ions that a name gives are not always drawn.

Tested on: ICR mice
Assay: Glucose tolerance in fasted ICR mice: serum glucose by glucose-oxidase method after intraperitoneal glucose load
Format: in vivo
Conditions: dose 100 mg/kg; for 0.5 h blood sugar: serum glucose 0.5 h after modeling (2 g/kg glucose i.p. 2 h after administration; 1.5 h for diamicron); for 1 h blood sugar: serum glucose 1 h after modeling (2 g/kg glucose i.p. 2 h after administration; 1.5 h for diamicron); for 2 h blood sugar: serum glucose 2 h after modeling (2 g/kg glucose i.p. 2 h after administration; 1.5 h for diamicron); for 3 h blood sugar: serum glucose 3 h after modeling (2 g/kg glucose i.p. 2 h after administration; 1.5 h for diamicron); for 4 h blood sugar: serum glucose 4 h after modeling (2 g/kg glucose i.p. 2 h after administration; 1.5 h for diamicron)
Experimental: 1% sodium carboxymethyl cellulose is used to formulate the sample to a suspension with the concentration of 5 mg/mL, the administration amount is 0.4 mL/20 g body weight, which is corresponding to 100 mg/kg dosage.
The health ICR mice with 20-24 g of body weight fulfill the primary standard, and the male and female of them are in equal. The animals are fasted for 16 hours, and 2 g/kg of glucose-saline solution is injected intraperitoneally at 2 h after administration (glucose is injected at 1.5 h after administration of diamicron). The blood is regularly collected from the post-glomus venous plexus in mice with capillary at 0.5 h, 1 h, 2 h, 3 h, and 4 h after modeling, centrifuged to separate the blood serum, and the content of serum glucose is measured at each of the time-point by glucose-oxidase method.

Cc1ccc(S(=O)(=O)NC(=O)NN2CC3CCCC3C2)cc1 (stereo not drawn) [diamicron, reference compound]
0.5 h blood sugar: 211.0 ± 91.3 mg/dL
1 h blood sugar: 140.3 ± 74.4 mg/dL
2 h blood sugar: 103.4 ± 31.7 mg/dL
3 h blood sugar: 77.2 ± 25.8 mg/dL
4 h blood sugar: 62.3 ± 22.3 mg/dL

Cl.O=C(CNCc1ccccc1Cl)Nc1nc(Br)cs1 [Compound I-13, 4-bromo-2-{2-[(2-chlorobenzyl)amino]acetyl}amino thiazole hydrochloride]
0.5 h blood sugar: 195.6 ± 78.1 mg/dL
1 h blood sugar: 166.5 ± 44.2 mg/dL
2 h blood sugar: 99.3 ± 20.9 mg/dL
3 h blood sugar: 68.1 ± 21.5 mg/dL
4 h blood sugar: 59.2 ± 18.3 mg/dL

O=C(CNCc1ccccc1Cl)Nc1nc(Br)cs1 [Compound I-2, 4-bromo-2-{2-[(2-chlorobenzyl)amino]acetyl}amino thiazole]
0.5 h blood sugar: 199.2 ± 37.6 mg/dL
1 h blood sugar: 153.3 ± 62.7 mg/dL
2 h blood sugar: 93.3 ± 48.7 mg/dL
3 h blood sugar: 58.2 ± 29.0 mg/dL
4 h blood sugar: 60.0 ± 18.2 mg/dL

Cl.O=C(CNCc1occc1[N+](=O)[O-])Nc1nc(Br)cs1 [Compound I-15, 4-bromo-2-{2-[(3-nitrylfuranyl-2-methyl)amino]acetyl}amino thiazole hydrochloride]
0.5 h blood sugar: 193.6 ± 76.4 mg/dL
1 h blood sugar: 161.5 ± 42.6 mg/dL
2 h blood sugar: 91.3 ± 20.0 mg/dL
3 h blood sugar: 64.1 ± 20.2 mg/dL
4 h blood sugar: 55.1 ± 14.2 mg/dL

Cc1csc(NC(=O)CNCc2cccs2)n1.Cl [Compound I-14, 4-methyl-2-{2-[(thienyl-2-methyl)amino]acetyl}amino thiazole hydrochloride]
0.5 h blood sugar: 233.2 ± 18.1 mg/dL
1 h blood sugar: 176.2 ± 25.2 mg/dL
2 h blood sugar: 95.4 ± 46.9 mg/dL
3 h blood sugar: 65.3 ± 20.1 mg/dL
4 h blood sugar: 70.1 ± 15.3 mg/dL

O=C(CNCc1ccccc1)Nc1nccs1 [Compound I-1, 2-{2-[(benzyl)amino]acetyl}amino thiazole]
0.5 h blood sugar: 266.4 ± 56.9 mg/dL
1 h blood sugar: 182.3 ± 57.6 mg/dL
2 h blood sugar: 88.2 ± 17.6 mg/dL
3 h blood sugar: 60.0 ± 15.6 mg/dL
4 h blood sugar: 52.3 ± 28.1 mg/dL

COC(=O)c1csc(NC(=O)CNCc2scc(C)c2Br)n1 [Compound I-8, 2-{2-[(3-bromo-4-methylthienyl-2-methyl)amino]acetyl}amino thiazole-4-methyl formate]
0.5 h blood sugar: 162.5 ± 20.6 mg/dL
1 h blood sugar: 102.0 ± 30.5 mg/dL
2 h blood sugar: 98.7 ± 20.5 mg/dL
3 h blood sugar: 62.5 ± 15.3 mg/dL
4 h blood sugar: 50.6 ± 18.9 mg/dL

Cc1csc(NC(=O)CNCc2cccs2)n1 [Compound I-6, 4-methyl-2-{2-[(thienyl-2-methyl)amino]acetyl}amino thiazole]
0.5 h blood sugar: 240.1 ± 41.1 mg/dL
1 h blood sugar: 186.8 ± 45.9 mg/dL
2 h blood sugar: 113.6 ± 30.9 mg/dL
3 h blood sugar: 76.6 ± 48.4 mg/dL
4 h blood sugar: 88.0 ± 20.1 mg/dL

O=C(CNCc1sccc1Br)Nc1nc(Br)cs1 [Compound I-7, 4-bromo-2-{2-[(3-bromothienyl-2-methyl)amino]acetyl}amino thiazole]
0.5 h blood sugar: 186.0 ± 67.8 mg/dL
1 h blood sugar: 130.2 ± 37.7 mg/dL
2 h blood sugar: 100.9 ± 29.6 mg/dL
3 h blood sugar: 83.3 ± 91.8 mg/dL
4 h blood sugar: 72.1 ± 29.7 mg/dL
